This note sets out measurements from patent US11439696B2, “Modulation of proprotein convertase subtilisin/kexin 9 expression (PCSK9) with HSP 27 and/or HSP25” (PEMI31 Therapeutics Inc., priority 2015, dated 2022).

The subject of data set [1] is PCSK9. The experiment in a line: PCSK9 secretion from HepG2 (liver) cells with increasing doses of Atorvastatin. Conditions: HepG2, increasing doses of AV (FIG. 12). The format is cell-based. The procedure:
[…] At the end of incubation period, the medium was removed and centrifuged at 4,000 rpm for 10 min at 4° C. to remove a small amount of residual cells and debris. The supernatant fraction was stored at 4° C. until analyzed.
Total cell or tissue lysates were prepared in lysis buffer (20 mM Tris-Hcl pH8.0, 150 mM NaCl, 0.1% SDS, 0.1 mM PMSF). Lysates were cleared by centrifugation at 4° C., 12,000 rpm for 10 min, and protein concentrations were determined using the Bradford protein assay with BSA as the standard. Samples (30 μl culture medium, 50 μg for cell and 25 μg for liver) were separated by SDS-PAGE under reducing conditions, transferred to IMMOBILON® PVDF (IMMOBILON is a registered trademark of Millipore Corp.) using IBLOT® Dry Blotting System (Life Technologies; IBLOT is a registered trademark of Invitrogen Corp., Carlsbad, Calif., USA) and subsequently membranes were immunoblotted with the following antibodies: LDL-R (Santa Cruz, 1:1000) and PCSK9 (Santa Cruz, 1:1000); β-Actin (Santa Cruz, 1:1000) was used as the loading control. Appropriate secondary HRP-conjugated antibodies were used prior to visualization by enhanced chemiluminescence (ECL, Life technologies).

Data set [2] has as its system PCSK9 mRNA. The experiment in a line: PCSK9 mRNA expression in HepG2 (liver) cells by quantitative RT-PCR. The format is cell-based. Conditions: HepG2 (FIG. 14).
A short description of data set [3]: Stability of HSP27 in human serum at −20° C. (MRM-MS). The format is physicochemical. Conditions: two representative human sera, 3 weeks storage at −20° C. (FIG. 7E). The procedure:
The assay was fully validated according to the U.S. Food and Drug Administration (FDA) Bioanalytical method validation guideline (www.fda.dov/downloads/Drugs/GuidanceComplianceRegulatoryInformation/Guidances/UCM070107). Nine calibration standards of trypsin-digested recombinant HSP27 were prepared by serial dilution in concentrations of 1000; 500; 250; 125; 62.5; 31.25; 15.625; 7.8 and 0 ng/ml. The limit of detection (LOD) was calculated as the smallest detectable peak above baseline noise (signal-to-noise ratio>3:1). Calculating target peptide: AQUA peptide ratios of the peak area for each concentration level. Standard curves were constructed by linear regression analysis by excel. The same samples were analyzed 7 times and the repeatability was compared. Extraction efficiency and recovery were performed by comparing concentrations between samples without and with standard rHSP27. Matrix effect was assessed using double dilution test for the linearity when serum samples were 1, 2, 4 and 8 times diluted. Parallelism test was also applied to estimate matrix effect. Stability of HSP27 in human serum was estimated for 21 days at −20° C.

The test system of data set [4] is LDL-Receptor. The experiment in a line: Western blot (relative densitometry) of LDL-Receptor expression in HepG2 (liver) cells. Type of data set: cell-based. Conditions: HepG2 (liver) cells treated for 6 h (FIG. 16). Here is the method:
(§1) HepG2 cells (0.5×10^6 cells/60 mm well) were incubated on H-Glucose DMEM medium containing 10% FBS and 1×penicillin/streptomycin in the presence or absence of rHsp27 (200 μg) for specified time periods at 37° C. At the end of incubation period, the medium was removed and centrifuged at 4,000 rpm for 10 min at 4° C. to remove a small amount of residual cells and debris. The supernatant fraction was stored at 4° C. until analyzed.
(§2) Meanwhile, cells were washed three times with cold PBS, scraped off the dishes (after the addition of 1 ml lysis buffer (20 mM Tris-HCl; pH 8.0; 150 mM NaCl; 0.1 mM PMSF), and sonicated; whole cell lysates were then stored at −20° C. until use.
(§3) Total cell or tissue lysates were prepared in lysis buffer (20 mM Tris-Hcl pH8.0, 150 mM NaCl, 0.1% SDS, 0.1 mM PMSF). Lysates were cleared by centrifugation at 4° C., 12,000 rpm for 10 min, and protein concentrations were determined using the Bradford protein assay with BSA as the standard. […]
On the technique in general: In western blotting, separated proteins are transferred to a membrane and probed.

For data set [5], the system named is PCSK9. The experiment in a line: Western blot (relative densitometry) of PCSK9 expression in HepG2 (liver) cells. The format is cell-based. Conditions: HepG2 (liver) cells treated for 1 h (FIG. 15). Here is the method:
as §1, §2, §3
HepG2 cells in the 6-well plates were washed twice with phosphate-buffered saline and lifted by pipette with 1 ml PBS. […] The membrane fraction was re-suspended in PBS by sonication and the protein concentration was determined by Bradford reagent (Sigma). […] Signals on the membrane were visualized by chemi-luminescence of HRP substrate.

In data set [6] the test system is LDL-Receptor (LDL-R). The experiment in a line: LDL-Receptor fluorescent immunolabelling of HepG2 (liver) cells. The format is cell-based. Conditions: HepG2, 17β-estradiol 100 nM or rHSP27 100 μg overnight (16 hours) (FIG. 17). Here is the method:
HepG2 cells (10^5 cells) were seeded in SPL Coverglass sterile dish 35×10 mm (Bio Lab) for 2 days. Cells were then treated with 17β-estradiol (100 nM) or rHSP27 (100 μg) overnight (16 hours). After washing, cells were fixed in 4% paraformaldehyde, permeabilized in 0.5% (v/v) Triton x-100 for 10 minutes, washed, blocked in 10% horse serum (1 hour), washed, then incubated in primary antibody rabbit monoclonal to LDL-R (Ab52818; ABCAM; 1:100) 4° C. overnight. After washing, cells were incubated in secondary antibody fluorescein goat Anti-Rabbit IgG antibody (FI-1000; Vector Laboratories; 1:100) for 30 min at room temperature, then mounted with mounting medium with DAPI (VectaShield Antifade Mounting Medium with DAPI; Vector Labs H-1200) for at least 24 hour in the dark before visualization. Various controls were used, and included: (i) absence of the Triton treatement, and (ii) omitting the primary or secondary antibodies used for immunolabelling. Immunofluorescence 10^5 cells were seeded ina SPL coverglass sterile dish 35×10 mm (Bio Lab) for 2 days. The cells were then treated with 17 β-estradiol (100 nM) or rHSP27 (100 μg) overnight (16 hours). […] Mounted with mounting medium with DAPI (VectaShield Antifade Mounting Medium with DAPI; Vector Labs H-1200) for at least 24 hour in the dark before visualization with fluorescence microscopy.

“And” between values parts separate entries of the source, which are not always exact repeats. Equal entries are not always repeated.

`CC(C)c1c(C(=O)Nc2ccccc2)c(-c2ccccc2)c(-c2ccc(F)cc2)n1CC[C@@H](O)C[C@@H](O)CC(=O)O` [AV, Atorvastatin]: the “secretion of PCSK9” value in data set [1] is “dose-dependent secretion”. Further, the “PCSK9 expression (mRNA) on treatment with AV” value in data set [2] is “increase”.
As for “endogenous HSP27: endogenous heat shock protein 27 in human serum samples, measured by MRM-MS”, in data set [3], the “endogenous HSP27 remaining after storage” value was 111+6 % of fresh sera and 87+5 % of fresh sera.
With `C[C@]12CC[C@@H]3c4ccc(O)cc4CC[C@H]3[C@@H]1CC[C@@H]2O` [17 β-estradiol], in data set [4], the “increase in LDL-Receptor expression” value amounted to 116%. The “reduction in PCSK9 expression” value in data set [5] was found to be 28%. Further, the LDL-R signal result in data set [6] was “increased”.
